# Target: Hma (MmaA4) (Mycobacterium tuberculosis, UniProt Q79FX8)
# Sequence (Q79FX8 4-301): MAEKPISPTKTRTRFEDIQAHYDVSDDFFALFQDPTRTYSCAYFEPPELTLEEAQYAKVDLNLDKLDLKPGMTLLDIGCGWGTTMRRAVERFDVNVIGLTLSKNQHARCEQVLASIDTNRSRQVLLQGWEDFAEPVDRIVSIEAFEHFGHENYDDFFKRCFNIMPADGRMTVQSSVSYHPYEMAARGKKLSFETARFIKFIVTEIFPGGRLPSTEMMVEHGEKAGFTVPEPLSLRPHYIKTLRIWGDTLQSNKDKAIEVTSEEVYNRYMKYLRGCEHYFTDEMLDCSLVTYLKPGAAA
smiles,measurement,value
O=Cc1ccc2cccc(O)c2n1 [ZT726],"X-ray crystallography, fragment soak, PanDDA","A second molecule of the ZT260 and ZT320 fragments is located at this position, as well as ZT726"

# From PMC8708032, “Fragment-Based Ligand Discovery Applied to the Mycolic Acid Methyltransferase Hma (MmaA4) from Mycobacterium tuberculosis: A Crystallographic and Molecular Modelling Study” (Pharmaceuticals, 2021)
